Measurements: ChEMBL document CHEMBL1909046, “DrugMatrix in vitro pharmacology data”

Tests used:
[1] = target: T1, B2 bradykinin receptor (Homo sapiens, UniProt P30411); assay type: cell membranes, Membrane; conditions: chem-1; further: in other assays of this panel Not Active means under 50% inhibition at 10 µM
T1 sequence (P30411 whole entry): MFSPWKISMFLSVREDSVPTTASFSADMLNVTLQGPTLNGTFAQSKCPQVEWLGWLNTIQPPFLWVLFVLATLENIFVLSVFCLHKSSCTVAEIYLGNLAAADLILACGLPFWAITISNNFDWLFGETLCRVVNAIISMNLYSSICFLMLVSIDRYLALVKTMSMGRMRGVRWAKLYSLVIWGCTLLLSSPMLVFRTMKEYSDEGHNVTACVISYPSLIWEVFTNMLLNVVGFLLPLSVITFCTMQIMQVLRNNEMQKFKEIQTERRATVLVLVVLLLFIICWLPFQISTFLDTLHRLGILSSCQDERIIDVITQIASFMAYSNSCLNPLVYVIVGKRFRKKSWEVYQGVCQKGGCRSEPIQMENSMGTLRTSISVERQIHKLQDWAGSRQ

[2] = target: T2, Calcitonin receptor (Homo sapiens, UniProt P30988); assay type: cell membranes, Membrane; conditions: t47d; further: in other assays of this panel Not Active means under 50% inhibition at 10 µM
T2 sequence (P30988 whole entry): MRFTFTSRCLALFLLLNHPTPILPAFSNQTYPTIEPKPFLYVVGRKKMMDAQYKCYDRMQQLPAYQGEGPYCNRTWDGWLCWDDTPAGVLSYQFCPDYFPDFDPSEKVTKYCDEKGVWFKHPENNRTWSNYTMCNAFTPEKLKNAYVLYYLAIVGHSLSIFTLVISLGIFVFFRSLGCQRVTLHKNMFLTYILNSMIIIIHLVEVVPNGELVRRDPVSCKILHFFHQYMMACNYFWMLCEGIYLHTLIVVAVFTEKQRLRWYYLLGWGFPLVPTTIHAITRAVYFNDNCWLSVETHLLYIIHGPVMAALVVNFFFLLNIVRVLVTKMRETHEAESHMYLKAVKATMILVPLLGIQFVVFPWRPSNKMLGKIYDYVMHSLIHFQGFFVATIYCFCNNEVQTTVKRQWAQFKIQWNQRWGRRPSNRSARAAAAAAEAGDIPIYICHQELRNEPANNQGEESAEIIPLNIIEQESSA

[3] = target: 5-hydroxytryptamine receptor 2B (Homo sapiens, UniProt P41595); assay type: cell membranes, CHO-K1, Membrane; further: in other assays of this panel Not Active means under 50% inhibition at 10 µM
Chain of 5-hydroxytryptamine receptor 2B (P41595 whole entry): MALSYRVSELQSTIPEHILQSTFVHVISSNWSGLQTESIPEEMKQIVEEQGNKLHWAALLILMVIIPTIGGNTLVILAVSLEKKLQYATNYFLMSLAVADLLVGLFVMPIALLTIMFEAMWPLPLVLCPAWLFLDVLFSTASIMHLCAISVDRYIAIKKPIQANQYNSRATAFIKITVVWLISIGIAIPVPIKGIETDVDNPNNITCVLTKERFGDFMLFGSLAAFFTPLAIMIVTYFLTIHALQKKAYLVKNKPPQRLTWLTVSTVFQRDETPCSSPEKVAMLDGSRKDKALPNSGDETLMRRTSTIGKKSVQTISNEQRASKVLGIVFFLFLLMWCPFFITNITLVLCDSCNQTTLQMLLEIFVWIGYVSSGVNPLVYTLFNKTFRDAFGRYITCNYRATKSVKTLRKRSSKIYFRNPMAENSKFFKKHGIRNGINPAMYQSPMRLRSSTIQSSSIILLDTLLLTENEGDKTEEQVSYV

[4] = DRUGMATRIX: Sigma2 radioligand binding (ligand: [3H] Ifenprodil); assay type: cell membranes, Rattus norvegicus, Wistar, Brain, Membrane; conditions: Not Active = under 50% inhibition at 10 µM
[5] = DRUGMATRIX: Calcium Channel Type L, Phenylalkylamine radioligand binding (ligand: [3H] (-)-Desmethoxyverapamil (D-888)); assay type: cell membranes, Rattus norvegicus, Wistar, Brain, Membrane; conditions: Not Active = under 50% inhibition at 10 µM
[6] = target: Carbonic anhydrase 2 (Homo sapiens, UniProt P00918); assay: DRUGMATRIX: Carbonic Anhydrase II enzyme inhibition (substrate: 4-Nitrophenyl acetate (4-NPA)); assay type: tissue-based, Erythrocyte; conditions: erythrocyte; Not Active = under 50% inhibition at 10 µM
[7] = target: Prostaglandin G/H synthase 1 (Homo sapiens, UniProt P23219); assay: biochemical; assay type: tissue-based, Platelet; conditions: platelet;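 further: inhibition of COX-1 enzyme activity, with arachidonic acid supplied as substrate; in other assays of this panel Not Active means under 50% inhibition at 10 µM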
Chain of Prostaglandin G/H synthase 1 (P23219 whole entry): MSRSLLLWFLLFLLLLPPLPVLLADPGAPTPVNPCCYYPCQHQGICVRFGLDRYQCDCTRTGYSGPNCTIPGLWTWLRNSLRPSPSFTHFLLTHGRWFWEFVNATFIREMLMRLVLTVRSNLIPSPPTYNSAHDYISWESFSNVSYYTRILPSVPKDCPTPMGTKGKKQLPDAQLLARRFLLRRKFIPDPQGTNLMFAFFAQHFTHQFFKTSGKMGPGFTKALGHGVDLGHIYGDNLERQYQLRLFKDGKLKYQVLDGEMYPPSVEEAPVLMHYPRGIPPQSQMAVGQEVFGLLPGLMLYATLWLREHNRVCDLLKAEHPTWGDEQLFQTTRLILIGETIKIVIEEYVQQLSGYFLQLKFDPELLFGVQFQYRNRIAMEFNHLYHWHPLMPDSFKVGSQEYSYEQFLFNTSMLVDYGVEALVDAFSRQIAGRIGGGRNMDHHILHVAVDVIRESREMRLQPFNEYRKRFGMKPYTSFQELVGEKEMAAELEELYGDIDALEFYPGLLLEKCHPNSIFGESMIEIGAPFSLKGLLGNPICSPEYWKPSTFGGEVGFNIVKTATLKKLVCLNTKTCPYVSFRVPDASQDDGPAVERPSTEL

[8] = DRUGMATRIX: Phosphodiesterase PDE4 enzyme inhibition (substrate: [3H]cAMP + cAMP); conditions: u-937; Not Active = under 50% inhibition at 10 µM
[9] = DRUGMATRIX: Potassium Channel [KATP] radioligand binding (ligand: [3H] Glyburide); assay type: cell membranes, Membrane; conditions: hit-t15; Not Active = under 50% inhibition at 10 µM
[10] = target: T3, Interstitial collagenase (Homo sapiens, UniProt P03956); assay type: tissue-based, Rheumatoid synovial fibroblasts
T3 sequence (P03956 whole entry): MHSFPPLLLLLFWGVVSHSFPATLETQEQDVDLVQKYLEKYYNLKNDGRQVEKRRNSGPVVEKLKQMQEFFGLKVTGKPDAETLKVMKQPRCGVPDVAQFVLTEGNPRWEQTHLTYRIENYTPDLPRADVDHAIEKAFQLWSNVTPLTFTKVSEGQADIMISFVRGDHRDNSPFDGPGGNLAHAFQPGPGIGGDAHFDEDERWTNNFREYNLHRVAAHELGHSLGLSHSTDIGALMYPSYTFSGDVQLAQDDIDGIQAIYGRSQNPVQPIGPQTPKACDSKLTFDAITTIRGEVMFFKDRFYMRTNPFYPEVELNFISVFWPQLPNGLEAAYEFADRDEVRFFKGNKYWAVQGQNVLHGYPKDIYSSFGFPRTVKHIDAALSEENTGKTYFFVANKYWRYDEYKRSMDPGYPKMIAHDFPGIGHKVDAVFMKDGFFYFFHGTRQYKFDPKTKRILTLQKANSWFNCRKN

[11] = target: T4, Adenosine receptor A3 (Homo sapiens, UniProt P0DMS8); assay type: cell membranes, CHO-K1, Membrane
T4 sequence (P0DMS8 whole entry): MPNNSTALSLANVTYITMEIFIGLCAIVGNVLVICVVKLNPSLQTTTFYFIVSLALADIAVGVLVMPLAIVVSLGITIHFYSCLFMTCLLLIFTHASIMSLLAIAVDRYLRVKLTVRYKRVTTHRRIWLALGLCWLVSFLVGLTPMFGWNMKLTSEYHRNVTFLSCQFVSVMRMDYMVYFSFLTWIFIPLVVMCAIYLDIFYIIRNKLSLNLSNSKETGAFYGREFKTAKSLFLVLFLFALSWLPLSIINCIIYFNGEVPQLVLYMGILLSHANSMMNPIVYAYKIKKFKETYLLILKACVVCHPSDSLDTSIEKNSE

[12] = target: T5, Estrogen receptor (Homo sapiens, UniProt P03372); conditions: sf9; further: in other assays of this panel Not Active means under 50% inhibition at 10 µM
T5 sequence (P03372 whole entry): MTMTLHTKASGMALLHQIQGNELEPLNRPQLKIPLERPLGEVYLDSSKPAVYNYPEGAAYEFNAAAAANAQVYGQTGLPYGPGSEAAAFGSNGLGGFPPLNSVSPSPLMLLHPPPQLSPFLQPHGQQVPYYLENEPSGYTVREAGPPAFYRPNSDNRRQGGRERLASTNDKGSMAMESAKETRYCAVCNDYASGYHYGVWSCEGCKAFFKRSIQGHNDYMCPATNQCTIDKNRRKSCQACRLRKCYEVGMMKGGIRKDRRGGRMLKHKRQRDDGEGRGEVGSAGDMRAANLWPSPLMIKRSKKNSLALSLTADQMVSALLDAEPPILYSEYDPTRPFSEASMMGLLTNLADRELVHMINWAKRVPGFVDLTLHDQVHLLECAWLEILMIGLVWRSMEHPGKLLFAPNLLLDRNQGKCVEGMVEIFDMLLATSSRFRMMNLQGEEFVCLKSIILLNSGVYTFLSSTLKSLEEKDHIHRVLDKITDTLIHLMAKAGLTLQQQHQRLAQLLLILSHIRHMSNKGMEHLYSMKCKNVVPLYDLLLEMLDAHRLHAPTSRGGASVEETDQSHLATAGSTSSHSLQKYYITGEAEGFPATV

CC(C)(S)[C@@H](N)C(=O)O [PENICILLAMINE]
IC50 [1]: Not Active | IC50 [2]: Not Active | IC50 ([3]; cho-k1): Not Active | IC50 [4]: Not Active | Ki [4]: Not Active | IC50 [5]: Not Active | Ki [5]: Not Active | IC50 [6]: Not Active | IC50 [7]: Not Active | IC50 [8]: Not Active | Ki [8]: Not Active | IC50 [9]: Not Active | Ki [9]: Not Active | IC50 [10]: Not Active | IC50 ([11]; cho-k1): Not Active

Cc1ccccc1N1CCN(CCc2nnc3n2CCCC3)CC1 [DAPIPRAZOLE]
IC50 [1]: Not Active | IC50 [2]: Not Active | IC50 ([3]; read-out: IC50): 1060 nM | Ki ([3]; read-out: Ki): 672 nM | IC50 [4]: Not Active | Ki [4]: Not Active | IC50 [5]: Not Active | Ki [5]: Not Active | IC50 [6]: Not Active | IC50 [7]: Not Active | IC50 [8]: Not Active | Ki [8]: Not Active | IC50 [9]: Not Active | Ki [9]: Not Active | IC50 [10]: Not Active | IC50 ([11]; cho-k1): Not Active

Oc1c(Cl)cc(Cl)cc1Sc1cc(Cl)cc(Cl)c1O [BITHIONOL]
IC50 [1]: Not Active | IC50 [2]: Not Active | IC50 [4]: Not Active | Ki [4]: Not Active | IC50 [5]: Not Active | Ki [5]: Not Active | IC50 [6]: Not Active | IC50 [7]: Not Active | IC50 [8]: Not Active | Ki [8]: Not Active | IC50 [9]: Not Active | Ki [9]: Not Active | IC50 [10]: Not Active | IC50 ([11]; read-out: IC50): 829 nM | Ki ([11]; read-out: Ki): 468 nM | IC50 [12]: Not Active

NCC1(CC(=O)O)CCCCC1 [GABAPENTIN]
IC50 [1]: Not Active | IC50 [2]: Not Active | IC50 ([3]; cho-k1): Not Active | IC50 [4]: Not Active | Ki [4]: Not Active | IC50 [5]: Not Active | Ki [5]: Not Active | IC50 [6]: Not Active | IC50 [7]: Not Active | IC50 [8]: Not Active | Ki [8]: Not Active | IC50 [9]: Not Active | Ki [9]: Not Active | IC50 [10]: Not Active | IC50 ([11]; cho-k1): Not Active

C/C=C1\[C@H]2C=C(C)C[C@]1(N)c1ccc(=O)[nH]c1C2 [HUPERZINE A]
IC50 [1]: Not Active | IC50 [2]: Not Active | IC50 ([3]; cho-k1): Not Active | IC50 [4]: Not Active | Ki [4]: Not Active | IC50 [5]: Not Active | Ki [5]: Not Active | IC50 [6]: Not Active | IC50 [7]: Not Active | IC50 [8]: Not Active | Ki [8]: Not Active | IC50 [9]: Not Active | Ki [9]: Not Active | IC50 [10]: Not Active | IC50 ([11]; cho-k1): Not Active
